# Results reported in US20260185992A1, “METHODS FOR SELECTING AND TREATING PATIENTS WITH RETINAL DISEASE BASED ON COMPLEMENT PATHWAY HYPERACTIVITY” (Oak Bay Biosciences Inc., priority 2024, published 2026).
# Read-outs that look alike come from different tables or passages of the source.
# B1: Tesidolumab: an antibody vs. C5 (antibody, chains of the INN, looked up, V domains shown)
# VH: EVQLVQSGAEVKKPGSSVKVSCKASGGTFSSYAISWVRQAPGQGLEWMGGIGPFFGTANYAQKFQGRVTITADESTSTAYMELSSLRSEDTAVYYCARDTPYFDYWGQGTLVTVSS
# VL: SYELTQPLSVSVALGQTARITCSGDSIPNYYVYWYQQKPGQAPVLVIYDDSNRPSGIPERFSGSNSGNTATLTISRAQAGDEADYYCQSFDSSLNAEVFGGGTKLTVL
# Legend:
# GA patients [1] = settings: 2 mg q4w, cited from earlier work
# [2] = FDA prescribing information; cited from earlier work
# C5 = C5 (Homo sapiens, UniProt P01031); settings: report from publications; read-out: affinity for C5; cited from earlier work
# [3] = tested on: patients with ocular disease (Geographic Atrophy, AMD); settings: cited from earlier work; for benefit in trials: GA trials, systemic or IVT administered agents; for Status (clinical trial outcome): Table 1, ocular disease indication
# [4] = tested on: complement component Ba in aqueous humor; assay: Real world SYFOVRE study: response category by aqueous humor Ba; assay type: in vivo, human
# Protocol: (§1) Study Description: This study included GA anatomic (OCT, Specralis) & treatment administration data (treatment, injection date) and aqueous humor (AH) samples from 9 eyes of 5 patients with bilateral GA without CNV, treated with SYFOVRE® per USPI at a private retinal practice in the United States of America. The study was performed in accordance with the tenets of the Declaration of Helsinki and the Medical Research Involving Human Subjects Act (WMO) and was approved by the local Institutional Review Board. Written informed consent was obtained from all participants.
# Assessment of biomarkers of AH concentration of complement component Ba. Aqueous humor sampling of the eyes was conducted by anterior chamber paracentesis using a 30-gauge needle attached to a 1-ml syringe. Samples of up to 150 μl were obtained at baseline (prior to first administration of SYFOVRE®) and after the first, second, or third administration of SYFOVRE®. Quantitative measurement of AH Ba was carried out using a direct capture immunoassay (Micro Vue; Qidel Corporation). Samples were transferred to sterile polypropylene tubes immediately after collection and stored at −80° C. until analysis was performed.
# Categorization of eyes into hyper/homeo/hypo groups was performed: Hyper was ≥20 ng/mL Ba, Homeo was <20 to ≥10 ng/mL Ba, Hypo was <10 ng/mL Ba.
# Categorization of response to SYFOVRE® based on biomarker criteria was performed.
# [5] = tested on: eyes of patients with bilateral GA without CNV; assay: Real world SYFOVRE study: area of RPE loss by OCT; assay type: in vivo, human; settings: post treatment (70 days)
# Protocol: as §1
# For each individual eye, assessment of GA progression between baseline and the measurement of the post treatment ocular proteomics was performed based on OCT images taken at the relevant visits (baseline and visits when AH sample taken). OCT analysis of retinal atrophy was performed using automated measurement of area of RPE loss, with a foveally centered, ETDRS matched analysis performed by RetinAI. Given variability in image centering and quality between visits, for a given eye, only those regions of the retina that had consistent OCT imaging & analysis coverage at each relevant timepoint were used to calculate change in area of retinal atrophy.
# [6] = tested on: patients with bilateral GA; assay: FILLY Phase 2 study eye vs. fellow eye analysis; assay type: in vivo, human; settings: baseline to month 12
# Protocol: Apellis sponsored FILLY was a phase 2 trial evaluating efficacy of intravitreal pegcetacoplan complement C3 and C3b inhibitor on slowing GA progression, which included only one eye per participant in the treatment group.
# A post hoc analysis of phase 2 FILLY trial data comparing study (treated monthly, treated every other month and sham-treated) and fellow (untreated) eyes in a split-person study design was performed and the results published (Fu et al, 2023, hereinafter “Fu”). This analysis included 288 eyes from 144 patients with bilateral GA from the FILLY phase 2 trial (Clinical Trials identifier: NCT02503332). Only patients with bilateral GA and without evidence of choroidal neovascularization in either eye were included. Patient study eyes were treated with sham injections or with pegcetacoplan monthly (PM) or every other month (PEOM) for 12 months. […] Fu specifically interpreted the data as showing “on an individual patient level, changes in GA area for the fellow eye exceeded those in the study eye for most patients in the pegcetacoplan treatment groups, while changes in the sham group approached randomness between study and fellow eyes.” Fu et al. (Fu D J et al., “Evaluating the Effects of C3 Inhibition on Geographic Atrophy Progression from Deep-Learning OCT Quantification: A Split-Person Study”. Ophthalmol Ther. 2023). […]
# [7] = tested on: patients with bilateral GA; settings: FILLY post hoc analysis (Fu), 12 months; cited from earlier work
# C3 = C3 (Homo sapiens, UniProt P01024); settings: report from publications; read-out: affinity for C3; cited from earlier work
# GA patients [8] = settings: implication of FDA approved prescribing information; cited from earlier work
# [9] = in vivo; cited from earlier work
# Bb in aqueous humor [10] = assay: CHROMA/SPECTRI Phase 3 biomarker substudy: response to lampalizumab by aqueous humor Bb; assay type: in vivo, human; settings: Month 6
# Protocol: Patient level data for patients in the sham, q4w, and […] lampalizumab Phase 3 biomarker study, as reported by Edmonds et al (Edmonds R. et al., “Complement pathway Inhibition by Lampalizumab: Analysis of Data From Chroma and Spectri Phase III Clinical Trials.” Ophthalmol Sci. 2023; 3 (3): 100286. Published 2023 Feb. 13), in Supplemental FIG. 6 of Bb (ng/mL) in aqueous humor was measured and converted into numerical data points. To verify accuracy of the plotted data points, mean and standard deviation was calculated using the plotted data and compared to the reported mean and standard deviation in Edmonds et al. Values were in good agreement.
# (§2) In addition to the overall efficacy analyses, a biomarker sub study was conducted with about 100 patients (of which 33 from sham, q4w, q6w) with biomarker sampling at baseline and Month 6. Multiple complement factors were measured, including CFB, Bb, FD, C3, C3b/iC3b/C3d, C4, C4b/C4c. Results were described in Edmonds et al. Individual data points for the measured ocular proteins were reported in figures (Edmonds at FIG. 4 and Supplemental FIGS. 4-10) in addition to cohort level metrics (baseline and efficacy at 6 months).
# In Edmonds, the ratio of Bb/CFB was used to assess complement activity and concluded that dosing with higher concentrations or more frequent dosing would not result in greater inhibitor of the complement pathway as there is no meaningful correlation between Bb: CFB ratio and percent change in aqueous humor from baseline to week 24.
# To reassess the data & results described in Edmonds according to the categorization described herein, the data points for Bb at baseline and Month 6 in Supplemental FIG. 6 were converted into numerical values based on measurement relative to the axes and categorized as follows:
# • 1. […] Ineffective lampalizumab administration-Hyper baseline, hyper at Month 6 and <50% reduction in Bb at Month 6 from baseline Bb • 3.
# [11] = tested on: patients with geographic atrophy; assay: CHROMA + SPECTRI Phase 3 trials: change in GA area from baseline; assay type: in vivo, human
# Protocol: The CHROMA & SPECTRI Phase 3 trials evaluated lampalizumab (anti-fD fab) intravitreally administered IVT 10 mg at q4w or q6w intervals compared to sham (untreated) controls. Both studies had identical designs, and each enrolled a total of about 900 patients (300 per cohort, lampa q4w, lampa […], etc). The trial is described in Holz et al. (Holz F G et al. “Efficacy and Safety of Lampalizumab for Geographic Atrophy Due to Age-Related Macular Degeneration: Chroma and Spectri Phase 3 Randomized Clinical Trials”. JAMA Ophthalmol. 2018; 136 (6): 666-677)
# as §2
# As “control” prediction methodology, the pooled progression for sham, q4w, and q6w at 12 months as reported in Edmonds of the overall Phase 3 was divided by 2 to estimate the progression of a cohort of any patients at 6 months.
# Bb in aqueous humor [12] = settings: essentially all individual patients treated, q4w and q6w (Edmonds at FIG. 4B); cited from earlier work
# [13] = tested on: patients with geographic atrophy; settings: cited from earlier work
# Chain of C3 (P01024 23-1663): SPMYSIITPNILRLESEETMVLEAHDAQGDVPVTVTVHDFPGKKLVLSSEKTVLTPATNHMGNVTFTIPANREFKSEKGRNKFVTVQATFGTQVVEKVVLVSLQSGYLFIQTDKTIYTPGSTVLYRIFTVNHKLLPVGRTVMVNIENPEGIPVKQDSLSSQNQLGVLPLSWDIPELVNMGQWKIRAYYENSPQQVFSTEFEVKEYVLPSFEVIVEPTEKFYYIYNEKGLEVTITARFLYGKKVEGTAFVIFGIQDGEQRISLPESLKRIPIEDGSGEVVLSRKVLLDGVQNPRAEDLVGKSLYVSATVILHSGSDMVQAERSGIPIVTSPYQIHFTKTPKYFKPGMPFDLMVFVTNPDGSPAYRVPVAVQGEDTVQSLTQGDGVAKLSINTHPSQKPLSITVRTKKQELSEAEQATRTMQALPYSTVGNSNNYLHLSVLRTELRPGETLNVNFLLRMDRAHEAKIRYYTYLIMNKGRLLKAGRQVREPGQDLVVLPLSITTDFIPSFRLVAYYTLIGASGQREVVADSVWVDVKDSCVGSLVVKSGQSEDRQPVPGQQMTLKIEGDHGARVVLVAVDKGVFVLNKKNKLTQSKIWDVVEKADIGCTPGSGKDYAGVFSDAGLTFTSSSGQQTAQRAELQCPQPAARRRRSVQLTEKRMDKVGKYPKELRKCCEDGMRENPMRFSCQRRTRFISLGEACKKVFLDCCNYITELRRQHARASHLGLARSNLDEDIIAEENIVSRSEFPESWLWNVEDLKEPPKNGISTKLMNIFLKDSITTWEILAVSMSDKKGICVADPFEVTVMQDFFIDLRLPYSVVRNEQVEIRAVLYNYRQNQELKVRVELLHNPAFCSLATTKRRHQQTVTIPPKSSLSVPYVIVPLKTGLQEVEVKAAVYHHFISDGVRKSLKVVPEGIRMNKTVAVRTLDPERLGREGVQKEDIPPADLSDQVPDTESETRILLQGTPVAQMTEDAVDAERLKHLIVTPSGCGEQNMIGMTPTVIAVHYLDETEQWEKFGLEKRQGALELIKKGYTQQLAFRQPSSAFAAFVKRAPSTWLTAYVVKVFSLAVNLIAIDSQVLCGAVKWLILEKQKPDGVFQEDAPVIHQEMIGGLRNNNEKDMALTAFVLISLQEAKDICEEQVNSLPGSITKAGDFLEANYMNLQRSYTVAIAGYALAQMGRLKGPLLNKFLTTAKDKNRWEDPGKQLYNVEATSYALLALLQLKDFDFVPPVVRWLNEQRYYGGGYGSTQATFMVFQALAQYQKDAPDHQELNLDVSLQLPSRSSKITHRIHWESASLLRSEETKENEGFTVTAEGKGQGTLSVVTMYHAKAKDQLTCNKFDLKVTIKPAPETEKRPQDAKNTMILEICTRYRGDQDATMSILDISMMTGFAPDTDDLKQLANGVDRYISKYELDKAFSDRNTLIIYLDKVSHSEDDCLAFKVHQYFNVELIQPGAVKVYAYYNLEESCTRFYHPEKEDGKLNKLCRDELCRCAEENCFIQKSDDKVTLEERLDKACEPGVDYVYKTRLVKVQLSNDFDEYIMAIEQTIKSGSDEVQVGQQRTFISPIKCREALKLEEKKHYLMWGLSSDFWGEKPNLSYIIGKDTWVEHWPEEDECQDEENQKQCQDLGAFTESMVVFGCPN
# Chain of C5 (P01031 19-1676): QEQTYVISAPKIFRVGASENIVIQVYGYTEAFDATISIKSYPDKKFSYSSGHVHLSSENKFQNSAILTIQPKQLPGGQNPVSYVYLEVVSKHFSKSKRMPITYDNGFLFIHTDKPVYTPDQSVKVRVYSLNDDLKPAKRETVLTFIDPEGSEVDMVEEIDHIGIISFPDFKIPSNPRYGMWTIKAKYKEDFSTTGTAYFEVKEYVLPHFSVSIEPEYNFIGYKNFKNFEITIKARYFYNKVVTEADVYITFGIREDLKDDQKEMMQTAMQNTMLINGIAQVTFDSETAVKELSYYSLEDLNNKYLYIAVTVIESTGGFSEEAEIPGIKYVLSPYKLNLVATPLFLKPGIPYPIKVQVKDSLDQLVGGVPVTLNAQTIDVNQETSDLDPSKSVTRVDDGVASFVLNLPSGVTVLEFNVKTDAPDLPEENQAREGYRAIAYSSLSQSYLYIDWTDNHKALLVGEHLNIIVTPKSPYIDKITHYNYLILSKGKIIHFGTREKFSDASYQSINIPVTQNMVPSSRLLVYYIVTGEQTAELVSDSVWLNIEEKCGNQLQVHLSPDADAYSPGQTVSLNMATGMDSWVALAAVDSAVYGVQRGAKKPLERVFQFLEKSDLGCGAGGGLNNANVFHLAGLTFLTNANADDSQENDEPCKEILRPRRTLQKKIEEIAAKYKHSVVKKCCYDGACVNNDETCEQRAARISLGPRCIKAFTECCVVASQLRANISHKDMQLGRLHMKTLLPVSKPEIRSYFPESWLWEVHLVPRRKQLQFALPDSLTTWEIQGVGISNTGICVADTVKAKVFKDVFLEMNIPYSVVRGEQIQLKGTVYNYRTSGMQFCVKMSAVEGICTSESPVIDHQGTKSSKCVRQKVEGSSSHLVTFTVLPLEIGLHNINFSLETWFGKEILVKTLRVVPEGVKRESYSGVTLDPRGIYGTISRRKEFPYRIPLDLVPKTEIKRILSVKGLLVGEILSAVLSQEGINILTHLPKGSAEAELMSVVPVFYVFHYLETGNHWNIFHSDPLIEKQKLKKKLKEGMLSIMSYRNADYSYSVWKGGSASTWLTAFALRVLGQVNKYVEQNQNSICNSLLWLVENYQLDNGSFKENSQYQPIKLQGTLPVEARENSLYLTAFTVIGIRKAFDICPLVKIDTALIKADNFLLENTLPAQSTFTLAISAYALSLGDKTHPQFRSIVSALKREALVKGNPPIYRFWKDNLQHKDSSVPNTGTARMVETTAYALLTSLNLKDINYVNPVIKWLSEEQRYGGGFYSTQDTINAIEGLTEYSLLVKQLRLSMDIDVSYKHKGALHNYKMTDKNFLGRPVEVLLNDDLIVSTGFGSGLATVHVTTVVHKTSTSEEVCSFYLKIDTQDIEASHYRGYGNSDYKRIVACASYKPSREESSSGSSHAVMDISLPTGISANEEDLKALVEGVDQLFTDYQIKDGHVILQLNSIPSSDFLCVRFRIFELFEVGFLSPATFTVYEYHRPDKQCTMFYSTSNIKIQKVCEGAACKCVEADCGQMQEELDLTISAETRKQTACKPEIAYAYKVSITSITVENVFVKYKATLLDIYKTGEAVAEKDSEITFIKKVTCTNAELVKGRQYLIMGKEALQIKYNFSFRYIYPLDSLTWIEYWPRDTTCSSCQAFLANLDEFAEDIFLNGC
molecule,measurement,setting,value
avacincaptad pegol [IZERVAY®],reduction in mean rate of GA growth vs. sham at 12 months,GA patients [1]; GATHER 1,27.4%
same,reduction in mean rate of GA growth vs. sham at 12 months,GA patients [1]; GATHER 2,14%
same,geometric mean half-life of elimination (t1/2),[2],288 h
same,Kd,C5,~3 nM
CC(=O)c1nn(CC(=O)N2C[C@H](F)C[C@H]2C(=O)Nc2cccc(Br)n2)c2ccc(-c3cnc(C)nc3)cc12 [danicopan],benefit in trials,[3],failed to show benefit
pegcetacoplan [SYFOVRE®],Response Category,"[4]; Eye ID 001, OD, baseline category Hyper",Effective Complement Inhibition
same,Response Category,"[4]; Eye ID 002, OS, baseline category Hypo",Not
same,Response Category,"[4]; Eye ID 003, OD, baseline category Hyper",Not
same,Response Category,"[4]; Eye ID 004, OS, baseline category Hyper",Not
same,Response Category,"[4]; Eye ID 005, OD, baseline category Homeo",Not
same,Response Category,"[4]; Eye ID 006, OS, baseline category Homeo",Not
same,Response Category,"[4]; Eye ID 007, OD, baseline category Hypo",Not
same,Response Category,"[4]; Eye ID 008, OS, baseline category Hypo",Not
same,Response Category,"[4]; Eye ID 009, OD, baseline category Hypo",Not
same,RPE depletion area post treatment,"[5]; Eye ID 001, OD, hyper baseline, effective complement inhibition, baseline 6.57 mm^2",6.45 mm^2
same,RPE depletion area post treatment,"[5]; Eye ID 002, OS, hypo baseline, baseline 5.8 mm^2",6.75 mm^2
same,">=50% slowing study vs. fellow, %","[6]; PEOM (every other month), 35 eyes",20%
same,">=50% slowing study vs. fellow, %","[6]; PM (monthly), 36 eyes",53%
same,spatial GA progression compared to untreated fellow eyes,[7],reduction in spatial GA progression
same,Kd,C3,15 nM
same,"expected average efficacy, slowing for all indicated GA patients",GA patients [8],20%
same,geometric mean half-life of elimination (t1/2),[9],108 h
"lampalizumab: anti-fD fab, intravitreally administered 10 mg at q4w or q6w",Post treatment response: Effective (number of eyes),"Bb in aqueous humor [10]; Q4w, 35 eyes, 14 hyper",6
same,Of Hyper; Effective,Bb in aqueous humor [10]; Q4w,43%
same,Post treatment response: Effective (number of eyes),"Bb in aqueous humor [10]; Q6w, 32 eyes, 10 hyper",2
same,Of Hyper; Effective,Bb in aqueous humor [10]; Q6w,20%
same,Change in GA area from baseline: (Edmonds et al) Biomarker pooled cohort at 48 w divided by 2,[11]; Q4w,1.08
same,Change in GA area from baseline: CHROMA + SPECTRIA Pooled topline extrapolate to 24 w,[11]; Q4w,1.027
same,Change in GA area from baseline: (Edmonds et al) Biomarker pooled cohort at 48 w divided by 2,[11]; Q6w,1.03
same,Change in GA area from baseline: CHROMA + SPECTRIA Pooled topline extrapolate to 24 w,[11]; Q6w,1.028
same,Bb/CFB in aqueous humor,Bb in aqueous humor [12],decreases in Bb/CFB
same,Change in GA area from baseline: (Edmonds et al) Biomarker pooled cohort at 48 w,[13]; Q4w,2.16
same,Change in GA area from baseline: Actual Data from (Edmonds) Biomarker pooled cohort at 24 w,[13]; Q4w,1.0
same,Change in GA area from baseline: CHROMA + SPECTRI Pooled topline at 48 weeks,[13]; Q4w,2.054
same,Change in GA area from baseline: (Edmonds et al) Biomarker pooled cohort at 48 w,[13]; Q6w,2.06
same,Change in GA area from baseline: Actual Data from (Edmonds) Biomarker pooled cohort at 24 w,[13]; Q6w,1.04
same,Change in GA area from baseline: CHROMA + SPECTRI Pooled topline at 48 weeks,[13]; Q6w,2.055
same,benefit in trials,[3],failed to show benefit
same,Status (clinical trial outcome),[3],failed to meet
[2H]C([2H])([2H])C(/C=C/C=C(C)/C=C/C1=C(C)CCCC1(C)C)=C\COC(C)=O [Alkeus],benefit in trials,[3],failed to show benefit
B1,Status (clinical trial outcome),[3],Phase II failed
